Counter-ions that a name gives are not always drawn. Like-named read-outs stand apart in the source and are kept apart here.
Target: T1, His6-AspH315–758 (human aspartate/asparagine-β-hydroxylase, AspH) (Homo sapiens, UniProt Q12797)
T1 construct: N-Terminally His6-tagged human AspH315–758 (His6-AspH315–758) was produced in E. coli BL21 (DE3) cells; made in house; host or cells: E. coli BL21 (DE3), pET-28a(+) vector
T1 sequence (Q12797 315-758): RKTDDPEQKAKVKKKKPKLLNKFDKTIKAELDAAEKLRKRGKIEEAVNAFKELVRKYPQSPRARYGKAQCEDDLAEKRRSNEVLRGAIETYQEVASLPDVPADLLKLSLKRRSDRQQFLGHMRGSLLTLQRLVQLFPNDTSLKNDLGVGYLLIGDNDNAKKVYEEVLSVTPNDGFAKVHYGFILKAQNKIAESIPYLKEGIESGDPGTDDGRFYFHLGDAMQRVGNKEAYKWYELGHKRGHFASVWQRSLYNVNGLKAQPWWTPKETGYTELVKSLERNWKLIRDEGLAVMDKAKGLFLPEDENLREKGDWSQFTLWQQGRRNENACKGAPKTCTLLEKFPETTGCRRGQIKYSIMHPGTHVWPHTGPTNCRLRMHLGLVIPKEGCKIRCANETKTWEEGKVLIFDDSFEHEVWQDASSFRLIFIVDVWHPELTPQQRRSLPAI
Test: SPE-MS AspH inhibition assay (LOPAC screen at fixed 20 μM and IC50 dose-response), hydroxylation of cyclic peptide hFX-CP101–119
Type: biochemical

[1] = LOPAC Plate 4, compound at 20 uM
[2] = LOPAC Plate 4, compound at 20 uM, substrate conversion
[3] = LOPAC compound at fixed 20 uM, plate 1, normalised to DMSO and 2,4-PDCA controls
[4] = LOPAC compound at fixed 20 uM, substrate conversion, plate 1

## Cl.NCCNS(=O)(=O)c1cccc2c(Cl)cccc12 [A3 hydrochloride]
  % conversion: 25.50%

## Cl.NC[C@@H]1O[C@H](c2ccccc2)Cc2c1ccc(O)c2O [A-68930 hydrochloride]
[1]
  % inhibition: 78.36%
[2]
  % conversion: 9.73%

## Cl.NC[C@@H]1O[C@H](C23CC4CC(CC(C4)C2)C3)Cc2c1ccc(O)c2O [A-77636 hydrochloride]
  Plate 1 (% conversion): 15.05%
  Plate 1 (% inhibition): 62.00%

## CCS(=O)(=O)Nc1cccc(C(=C2CCCCC2)c2cnc[nH]2)c1 [A-315456]
  Plate 1 (% conversion): 40.98%
  Plate 1 (% inhibition): -15.20%

## CC1=C(C)C(=O)C(CCCCC#CCCCC#CCO)=C(C)C1=O [AA-861]
[3]
  Plate 1 (% inhibition): -23.70%
[4]
  Plate 1 (% conversion): 43.83%

## CNC(=O)[C@H]1O[C@@H](n2cnc3c(NCc4ccc(N)cc4)ncnc32)[C@H](O)[C@@H]1O [AB-MECA]
[3]
  Plate 1 (% inhibition): -6.25%
[4]
  Plate 1 (% conversion): 37.97%

## Cc1cc([C@@H]2CCCN2C)on1.Cl [ABT-418 hydrochloride]
  Plate 1 (% conversion): 35.68%
  Plate 1 (% inhibition): 0.56%

## CCCCCCCCc1ccc(-c2ccc(C(=O)O)cc2)cc1 [AC-55649]
  % conversion: 33.36%
20 µM
  % inhibition: 9.11%

## CC[n+]1c(/C=C/C=C2/N(C)c3ccccc3C2(C)C)sc2ccccc21.[I-] [AC-93253 iodide]
  Plate 2 (% conversion): 41.62%
LOPAC compound at 20uM, plate 2, normalised to DMSO and 2,4-PDCA controls
  Plate 2 (% inhibition): -16.93%

## NS(=O)(=O)c1nn2cc(-c3ccccc3)nc2s1 [AEG 3482]
  Plate 3 (% conversion): 35.73%

## N#C/C(=C\c1ccc(-c2cc(Cl)ccc2Cl)o1)C(=O)Nc1cccc2ncccc12 [AGK2]
[2]
  % conversion: 36.60%

## NC1(C(=O)O)CCc2cc(C(=O)O)ccc21 (centres unmarked) [AIDA]
[3]
  Plate 1 (% inhibition): 3.11%
[4]
  Plate 1 (% conversion): 34.83%

## CC(C)(C)c1ccc(/C=C/C(=O)Nc2ccc3c(c2)OCCO3)cc1 [AMG 9810]
[1]
  % inhibition: 5.34%
[2]
  % conversion: 34.65%

## O=C(Nc1ccccc1C(=O)NC1CCCCNC1=O)c1cc2ccccc2s1 (centres unmarked) [ANA-12]
[2]
  % conversion: 32.70%

## CCN(CC)c1ncnc2c1ncn2[C@@H]1O[C@H](COP(=O)([O-])OP(=O)([O-])C(Br)(Br)P(=O)([O-])O)[C@@H](O)[C@H]1O.[Na+].[Na+].[Na+] [ARL 67156 trisodium salt]
[3]
  Plate 1 (% inhibition): 82.09%
[4]
  Plate 1 (% conversion): 8.30%

## O=C(N/N=C/c1c(O)ccc2ccccc12)c1ccncc1 [AS-8351, reference compound]
50 nM His6-AspH315–758, 1.0 μM hFX-CP101–119, 3 μM 2OG, 2 μM Fe(II), 50 mM HEPES pH 7.5, 20 °C, mean ± SD, n = 2 (2,4-PDCA n = 10), read-out: IC50
  IC50: 3.07 ± 0.43 µM

## O=C1NC(=O)/C(=C/c2ccc(-c3ccc(F)cc3O)o2)S1 [AS-252424]
[3]
  Plate 1 (% inhibition): -9.30%
[4]
  Plate 1 (% conversion): 39.00%

## CC(C)(C)c1o[nH]c(=O)c1CC(N)C(=O)O (centres unmarked) [ATPA]
  Plate 1 (% conversion): 36.48%
  Plate 1 (% inhibition): -1.82%

## CC(=O)c1ccc2c(c1)N(CCCN(C)C)c1ccccc1S2 [Acepromazine maleate]
[2]
  % conversion: 29.56%

## CC(N)=O [Acetamide]
[3]
  Plate 1 (% inhibition): 0.92%
[4]
  Plate 1 (% conversion): 35.56%

## CC(=O)Nc1nnc(S(N)(=O)=O)s1 [Acetazolamide]
[3]
  Plate 1 (% inhibition): 9.71%
[4]
  Plate 1 (% conversion): 32.61%

## CC(=O)c1ccc(S(=O)(=O)NC(=O)NC2CCCCC2)cc1 [Acetohexamide]
[3]
  Plate 1 (% inhibition): -6.36%
[4]
  Plate 1 (% conversion): 38.01%

## CC(=O)OC(C)C[N+](C)(C)C.[Cl-] (stereo not drawn) [Acetyl-beta-methylcholine chloride]
[3]
  Plate 1 (% inhibition): -15.64%
[4]
  Plate 1 (% conversion): 41.13%

## CC(=O)Oc1ccccc1C(=O)O [Acetylsalicylic acid]
[3]
  Plate 1 (% inhibition): -0.51%
[4]
  Plate 1 (% conversion): 36.04%

## CC(=O)SCC[N+](C)(C)C.[Cl-] [Acetylthiocholine chloride]
  Plate 1 (% conversion): 37.52%
  Plate 1 (% inhibition): -4.90%

## CCN1C[C@]2(COC)[C@H](O)C[C@H](OC)[C@@]34[C@@H]5C[C@@]6(O)[C@H](OC(=O)c7ccccc7)[C@@H]5[C@@](OC(C)=O)([C@@H]([C@H](OC)[C@H]23)[C@@H]14)[C@@H](O)[C@@H]6OC [Aconitine]
  Plate 1 (% conversion): 40.69%
  Plate 1 (% inhibition): -14.35%

## CCCCC[C@H](CC(=O)NO)C(=O)N[C@H](C(=O)N1CCC[C@H]1CO)C(C)C [Actinonin]
[3]
  Plate 1 (% inhibition): -5.32%
[4]
  Plate 1 (% conversion): 37.66%

## Nc1nc2c(ncn2COCCO)c(=O)[nH]1 [Acyclovir]
[3]
  Plate 1 (% inhibition): -3.39%
[4]
  Plate 1 (% conversion): 37.01%

## Nc1ncnc2c1ncn2[C@@H]1O[C@H](CO)[C@@H](O)[C@H]1O [Adenosine]
[3]
  Plate 1 (% inhibition): 4.27%
[4]
  Plate 1 (% conversion): 34.44%

## NCCCCN=C(N)N [Agmatine sulfate]
  Plate 1 (% conversion): 36.66%
[3]
  Plate 1 (% inhibition): -2.35%

## COc1ccc2cccc(CCNC(C)=O)c2c1 [Agomelatine]
LOPAC compound at 20uM, plate 3, conversion of substrate peptide
  Plate 3 (% conversion): 37.59%

## CC(C)(C)NCC(O)c1ccc(O)c(CO)c1.CC(C)(C)NCC(O)c1ccc(O)c(CO)c1.O=S(=O)(O)O (centres unmarked) [Albuterol hemisulfate]
[2]
  % conversion: 30.81%

## COc1cc2nc(N(C)CCCNC(=O)C3CCCO3)nc(N)c2cc1OC (centres unmarked) [Alfuzosin hydrochloride]
[3]
  Plate 1 (% inhibition): -12.38%
[4]
  Plate 1 (% conversion): 40.03%

## O=c1nc2[nH]c3ccccc3nc-2c(=O)[nH]1 [Alloxazine]
[3]
  Plate 1 (% inhibition): -13.62%
[4]
  Plate 1 (% conversion): 40.45%

## C=CCc1ccccc1OCC(O)CNC(C)C (centres unmarked) [Alprenolol hydrochloride]
[3]
  Plate 1 (% inhibition): -9.33%
[4]
  Plate 1 (% conversion): 39.00%

## CN(C)c1nc(N(C)C)nc(N(C)C)n1 [Altretamine]
[3]
  Plate 1 (% inhibition): -0.35%
[4]
  Plate 1 (% conversion): 35.99%

## NC12CC3CC(CC(C3)C1)C2 [Amantadine hydrochloride]
[3]
  Plate 1 (% inhibition): -1.83%
[4]
  Plate 1 (% conversion): 36.49%

## NCCCNCCSP(=O)(O)O [Amifostine]
  Plate 1 (% conversion): 40.67%
[3]
  Plate 1 (% inhibition): -14.28%

## N=C(N)NC(=O)c1nc(Cl)c(N)nc1N [Amiloride hydrochloride]
[3]
  Plate 1 (% inhibition): 4.62%
[4]
  Plate 1 (% conversion): 34.32%

## CN1[C@@H]2CC[C@H]1C[C@@H](OC(c1ccccc1)c1ccccc1N)C2 (some centres unmarked) [Aminobenztropine]
  Plate 1 (% conversion): 38.12%
[3]
  Plate 1 (% inhibition): -6.68%

## NN=C(N)N.NN=C(N)N.O=S(=O)(O)O [Aminoguanidine hemisulfate]
[3]
  Plate 1 (% inhibition): 3.68%
[4]
  Plate 1 (% conversion): 34.64%

## Cl.N=C(N)NN [Aminoguanidine hydrochloride]
[3]
  Plate 1 (% inhibition): -12.95%
[4]
  Plate 1 (% conversion): 40.22%

## Cn1c(=O)c2[nH]cnc2n(C)c1=O.Cn1c(=O)c2[nH]cnc2n(C)c1=O.NCCN [Aminophylline ethylenediamine]
[3]
  Plate 1 (% inhibition): -9.00%
[4]
  Plate 1 (% conversion): 38.90%

## Nc1nc(N)c2nc(CNc3ccc(C(=O)N[C@@H](CCC(=O)O)C(=O)O)cc3)cnc2n1 [Aminopterin]
  Plate 1 (% conversion): 36.60%
[3]
  Plate 1 (% inhibition): -2.16%

## CCCCc1oc2ccccc2c1C(=O)c1cc(I)c(OCCN(CC)CC)c(I)c1 [Amiodarone hydrochloride]
[3]
  Plate 1 (% inhibition): 32.10%

## CCN1CCCC1CNC(=O)c1cc(S(=O)(=O)CC)c(N)cc1OC (centres unmarked) [Amisulpride]
[2]
  % conversion: 40.99%
LOPAC Plate 4, compound at 20 uM, read-out: % inhibition
  inhibition at 20 µM: -13.2%

## CN(C)CCC=C1c2ccccc2CCc2ccccc21 [Amitriptyline hydrochloride]
  Plate 1 (% conversion): 38.67%
[3]
  Plate 1 (% inhibition): -8.33%

## N.S=C(S)N1CCCC1 [Ammonium pyrrolidinedithiocarbamate]
[2]
  % conversion: 37.86%

## Clc1ccc2c(c1)C(N1CCNCC1)=Nc1ccccc1O2 [Amoxapine]
[3]
  Plate 1 (% inhibition): -8.96%
[4]
  Plate 1 (% conversion): 38.88%

## COc1cc(NS(C)(=O)=O)ccc1Nc1c2ccccc2nc2ccccc12 [Amsacrine hydrochloride]
[3]
  Plate 1 (% inhibition): -10.85%
[4]
  Plate 1 (% conversion): 39.52%

## N=c1ccn2c(n1)O[C@H]1[C@H](O)[C@@H](CO)O[C@H]12 [Ancitabine hydrochloride]
[3]
  Plate 1 (% inhibition): -4.15%

## COc1ccc(C(=O)N2CCCC2=O)cc1 [Aniracetam]
  Plate 1 (% conversion): 23.49%
  Plate 1 (% inhibition): 36.86%

## Cl.c1ccc(CN(CC2=NCCN2)c2ccccc2)cc1 [Antozoline hydrochloride]
[3]
  Plate 1 (% inhibition): -17.43%
[4]
  Plate 1 (% conversion): 41.73%

## O=c1cc(-c2ccc(O)cc2)oc2cc(O)cc(O)c12 [Apigenin, reference compound]
AspH activity, fixed compound concentration 20 μM, initial LOPAC screen, 0.5%v/v DMSO, read-out: Inhibition at 20 µM [%]
  inhibition at 20 µM: 95.8%
[3]
  Plate 1 (% inhibition): 95.84%
[4]
  Plate 1 (% conversion): 3.68%

## CN1CCc2cccc3c2[C@H]1Cc1ccc(O)c(O)c1-3 [Apomorphine hydrochloride hemihydrate]
[3]
  Plate 1 (% inhibition): 80.27%
[4]
  Plate 1 (% conversion): 8.92%

## CCN(CC)CCCN(c1ccccc1)C1Cc2ccccc2C1 [Aprindine hydrochloride]
[2]
  % conversion: 34.60%
